Results published in patent publication US6579556B2, “Ambient stable beverage” (Lipton, division of Conopco, Inc., priority 2000, dated 2003).
Converted amounts (≈) assume the structure as drawn. Like-named read-outs stand apart in the source and are kept apart here.

Tested on: yeast Saccharomyces cerevisiae X2180-1B
Assay: Fungicidal activity / MIC at 50° C. versus 30° C., yeast survival in YEPD broth pH 3.4
Type: cell-based
Conditions: for Importance: rating as pasteurisation adjunct
Procedure: In the table the minimum inhibitory concentration (MIC) is given for each compound as well as the molecular weight (M.W.), the logPoct and a rating of its importance. […] The logPoct, that is the logarithm of the partition coefficient of the relevant compound in octanol and thus a measure of its […], was determined using […]™ software from the CHEMOFFICE ULRA ENHANCED 2000™ software package (version 5.5) that is commercially available from CambridgeSoft.
(§1) YEPD contained glucose, 20 g/l, peptone 20 g/l and yeast extract 10 g/l. Rows of 30 ml tubes containing 10 ml YEPD, pH 3.4, were equilibrated at the required temperature for 7 minutes in a water bath, before inoculation with 10^4 cells/ml of the yeast Saccharomyces cerevisiae X2180-1B. Tubes were held at temperature for 10 minutes before being cooled rapidly in cold water for 5 minutes. Tubes were then incubated for 48 hours at 25° C. to allow surviving yeasts to grow out, and form discrete colonies.
as §1, §1, §1

[1] = minimum inhibitory concentration, 50° C.
[2] = Saccharomyces cerevisiae, minimum inhibitory concentration, 50° C., read-out: MIC50
[3] = Saccharomyces cerevisiae, read-out: MIC50
[4] = Saccharomyces cerevisiae, minimum inhibitory concentration, 50° C., given as ppm, read-out: MIC50

Row | Compound | Importance | MIC [2] [mM] | further results
1 | C=C(C)C1CC=C(C)C(OC(=O)CC)C1 (stereo not shown) [Carvyl propionate] | Mod |  | MIC50 [1]: 5 mM
2 | CCCCCCCOC(=O)CCC [Heptyl butyrate] | High (High effects compounds, most preferred, generally showed at least a 5 fold decrease in MIC, minimum inhibitory concentration at 50 °C compared with 30° C.) | 2 (≈ 373 µg/mL) | 
3 | CCCCCC(=O)OCCC(C)C [Isoamyl hexanoate] | High (High effects compounds, most preferred, generally showed at least a 5 fold decrease in MIC, minimum inhibitory concentration at 50 °C compared with 30° C.) | 5 (≈ 931 µg/mL) | 
4 | CCCCCCCCCCCCOC(C)=O [Lauryl acetate] | Mod | 40 | 
5 | CCCCCCCCCCCCCC=O [Myristaldehyde] | Mod | 40 (≈ 8500 µg/mL) | 
6 | CC(C)=CCC/C(C)=C\COC(=O)C(C)C [Neryl isobutyrate] | High (High effects compounds, most preferred, generally showed at least a 5 fold decrease in MIC, minimum inhibitory concentration at 50 °C compared with 30° C.) | 30 (≈ 6730 µg/mL) | 
7 | CCCCCC(=O)OCCc1ccccc1 [Phenethyl hexanoate] | High (High effects compounds, most preferred, generally showed at least a 5 fold decrease in MIC, minimum inhibitory concentration at 50 °C compared with 30° C.) | 10 (≈ 2200 µg/mL) | 
8 | w-6-Hexadecalactone | Low |  | MIC50 [1]: 50 mM
9 | CCCCCCCCCCCCCC(=O)O [Myristic acid] | High (High effects compounds, most preferred, generally showed at least a 5 fold decrease in MIC, minimum inhibitory concentration at 50 °C compared with 30° C.) | 50 (≈ 11400 µg/mL) | 
10 | O=C(OCc1ccccc1)c1ccccc1 [Benzyl benzoate] | Mod | 20 (≈ 4240 µg/mL) | 
11 | O=C(c1ccccc1)C(O)c1ccccc1 (stereo not shown) [Benzoin] | 10 |  | MIC [3]: 10 mM (≈ 2120 µg/mL)
12 | C=CC(C)(CCC=C(C)C)OC(=O)CC (stereo not shown) [Linalyl propionate] | Mod | 20 (≈ 4210 µg/mL) | 
13 | C=C1CC/C=C(\C)CC[C@@H]2[C@@H]1CC2(C)C [β-Caryophylene] | Low |  | MIC50 [1]: 70 mM
14 | CCCCCCCCCCCCCCCCO [Hexadecanol] | Low | 100 (≈ 24200 µg/mL) | 
15 | CCCCCCCCCCCC(=O)OCCCC [Butyl laurate] | Low | 100 (≈ 25600 µg/mL) | 
16 | methyl decenoate |  |  | fungicidal activity at 30° C. (30° C.): no fungicidal activity; fungicidal activity when heated to 50° C. (50° C.): significant fungicidal activity
17 | CCCC(=O)OC/C=C(\C)CCC=C(C)C [Geranyl butyrate] | High (High effects compounds, most preferred, generally showed at least a 5 fold decrease in MIC, minimum inhibitory concentration at 50 °C compared with 30° C.) | 40 (≈ 8970 µg/mL) | 
18 | O=C1CCCCCCCCCCCCCCO1 [w-Pentadecalactone] | Low |  | MIC50 [1]: 60 mM
19 | CCCCCCCCCC(=O)OCC [Ethyl decanoate] | High (High effects compounds, most preferred, generally showed at least a 5 fold decrease in MIC, minimum inhibitory concentration at 50 °C compared with 30° C.) | 40 (≈ 8010 µg/mL) | 
20 | CCCCCCCCC(=O)OCC [Ethyl nonanoate] | High (High effects compounds, most preferred, generally showed at least a 5 fold decrease in MIC, minimum inhibitory concentration at 50 °C compared with 30° C.) | 10 (≈ 1860 µg/mL) | 
21 | CC(=O)OC1CC2CCC1(C)C2(C)C (stereo not shown) [Bornyl acetate] | Low | 2 | 
22 | CCCCCCCCCCOC(=O)CCC [Decyl butyrate] | Low | 70 (≈ 16000 µg/mL) | 
23 | C=CCCCCCCCCC(=O)OCC [Ethyl 10-undecenoate] | High (High effects compounds, most preferred, generally showed at least a 5 fold decrease in MIC, minimum inhibitory concentration at 50 °C compared with 30° C.) | 50 (≈ 10600 µg/mL) | 
24 | CCC(=O)OC/C=C(\C)CCC=C(C)C [Geranyl propionate] | High (High effects compounds, most preferred, generally showed at least a 5 fold decrease in MIC, minimum inhibitory concentration at 50 °C compared with 30° C.) | 12 (≈ 2520 µg/mL) | 
25 | CCCCCCCCCCOC(=O)CC [Decyl propionate] | High (High effects compounds, most preferred, generally showed at least a 5 fold decrease in MIC, minimum inhibitory concentration at 50 °C compared with 30° C.) | 50 (≈ 10700 µg/mL) | 
26 | CCCCCCCCCCCCC(=O)O [Tridecanoic acid] | High (High effects compounds, most preferred, generally showed at least a 5 fold decrease in MIC, minimum inhibitory concentration at 50 °C compared with 30° C.) | 0.2 (≈ 42.9 µg/mL) | 

Row | Compound | Importance | MIC [2] [mM] | further results
27 | CCCCCCCCCCC=CC=O [2-Tridecenal] | High (High effects compounds, most preferred, generally showed at least a 5 fold decrease in MIC, minimum inhibitory concentration at 50 °C compared with 30° C.) | < 0.05 | MIC50 [4]: < 9.8 µg/mL
28 | CCCCCCCCCCCCCO [Tridecanol] | High (High effects compounds, most preferred, generally showed at least a 5 fold decrease in MIC, minimum inhibitory concentration at 50 °C compared with 30° C.) | 0.05 (≈ 10 µg/mL) | 
29 | CCCCCCCCOC(=O)CCC [Octyl butyrate] | High (High effects compounds, most preferred, generally showed at least a 5 fold decrease in MIC, minimum inhibitory concentration at 50 °C compared with 30° C.) | 40 (≈ 8010 µg/mL) | 
30 | CCCCCCCCCC(C)=O [2-Undecanone] | High (High effects compounds, most preferred, generally showed at least a 5 fold decrease in MIC, minimum inhibitory concentration at 50 °C compared with 30° C.) |  | MIC [3]: 1 mM (≈ 170 µg/mL)
31 | CCCCCCCCC(=O)OC [Methyl nonanoate] | High (High effects compounds, most preferred, generally showed at least a 5 fold decrease in MIC, minimum inhibitory concentration at 50 °C compared with 30° C.) | 2 (≈ 345 µg/mL) | 
32 | O=C(OCc1ccccc1)c1ccccc1O [Benzyl salicylate] | Low | 50 (≈ 11400 µg/mL) | 
33 | C=CCOC(=O)CCC1CCCCC1 [Allyl cyclohexanepropionate] | High (High effects compounds, most preferred, generally showed at least a 5 fold decrease in MIC, minimum inhibitory concentration at 50 °C compared with 30° C.) | 1 (≈ 196 µg/mL) | 
34 | CCCCCCCCCC(=O)OC [Methyl decanoate] | High (High effects compounds, most preferred, generally showed at least a 5 fold decrease in MIC, minimum inhibitory concentration at 50 °C compared with 30° C.) | 2 (≈ 373 µg/mL) | 
35 | CCCCCCCC(=O)OCCCCC [Amyl octanoate] | Mod | 60 (≈ 12900 µg/mL) | 
36 | CCCCCCCCCCCCCC(=O)OC [Methyl myristate] | Low | 60 (≈ 14500 µg/mL) | 
37 | CCCCCCCCCCCC(=O)OC [Methyl laurate] | High (High effects compounds, most preferred, generally showed at least a 5 fold decrease in MIC, minimum inhibitory concentration at 50 °C compared with 30° C.) | 40 (≈ 8570 µg/mL) | 
38 | C=CC(C)(O)CCC=C(C)CCC=C(C)C (stereo not shown) [Nerolidol] | High (High effects compounds, most preferred, generally showed at least a 5 fold decrease in MIC, minimum inhibitory concentration at 50 °C compared with 30° C.) | 1.5 (≈ 334 µg/mL) | 
39 | CCCC(=O)OC/C=C(/C)CCC=C(C)C [Neryl butyrate] | Mod | 50 (≈ 11200 µg/mL) | 
40 | CCCCCCCCCOC(C)=O [Nonyl acetate] | High (High effects compounds, most preferred, generally showed at least a 5 fold decrease in MIC, minimum inhibitory concentration at 50 °C compared with 30° C.) | 5 | 
41 | CCCCCCCC(=O)OCCc1ccccc1 [Phenethyl octanoate] | Mod | 40 (≈ 9930 µg/mL) | 
42 | CCCCCCCCCCCC(=O)OCC [Ethyl laurate] | Mod | 80 (≈ 18300 µg/mL) | 
43 | CCCCCCCCCCCCC=O [Tridecanal] | High (High effects compounds, most preferred, generally showed at least a 5 fold decrease in MIC, minimum inhibitory concentration at 50 °C compared with 30° C.) | 5 (≈ 992 µg/mL) | 
44 | C=CC(C)(CCC=C(C)C)OC(C)=O (stereo not shown) [Linalyl acetate] | Mod |  | MIC [3]: 10 mM
45 | CCCCCCCCCCC(=O)OCC [Ethyl undecanoate] | Mod | 50 (≈ 10700 µg/mL) | 
46 | CCCCCCCCCCC(=O)OC [Methyl undecanoate] | High (High effects compounds, most preferred, generally showed at least a 5 fold decrease in MIC, minimum inhibitory concentration at 50 °C compared with 30° C.) | 50 (≈ 10000 µg/mL) | 
47 | CCCCCCC(=O)OCCCC [Butyl heptanoate] | High (High effects compounds, most preferred, generally showed at least a 5 fold decrease in MIC, minimum inhibitory concentration at 50 °C compared with 30° C.) | 5 (≈ 931 µg/mL) | 
48 | CCCCCCCC(=O)OCCCCCC [Hexyl octanoate] | Mod | 10 (≈ 2280 µg/mL) | 
49 | C=CCCCCCCCCC(=O)OCCCC [Butyl 10-undecenoate] | Mod | 40 (≈ 9620 µg/mL) | 
50 | CCCCCCCCCCCCCCC(=O)O [Pantadecanoic acid] | Low |  | MIC50 [1]: 80 mM
51 | CCCCCCCCCC=CC=O [2-Dodecenal] | High (High effects compounds, most preferred, generally showed at least a 5 fold decrease in MIC, minimum inhibitory concentration at 50 °C compared with 30° C.) | < 0.05 | MIC50 [4]: < 9 µg/mL
52 | CC=CCCCCCCCC(=O)OC [Methyl-9-undecenoate] | High (High effects compounds, most preferred, generally showed at least a 5 fold decrease in MIC, minimum inhibitory concentration at 50 °C compared with 30° C.) | 40 (≈ 7930 µg/mL) | 
